Read-outs that look alike come from different tables or passages of the source. Non-standard residues stand in square brackets, D forms with d. Residues, ends and D or L forms follow the SMILES beside them.
What was measured:
murine red blood cells = assay: Red blood cell hemolysis; assay type: cell-based, mouse
Protocol: Selectivity of cyclic peptides for bacterial over mammalian cells was evaluated by measuring red blood cell hemolytic activities as described in Tosteson, M. T. Holmes, S. J., Razin, M. and Tosteson, D. C. Melittin Lysis of Red Cells, J. Membrane Biol. 87, 35-44(1985). Heparinized murine blood was centrifuged at 1000×g for 10 minutes. The supernatant and the buffy coat were removed. Erythrocytes were washed three times with 0.9% saline solution and then resuspended to a concentration of 5% in saline containing 10% FBS (v/v). Red blood cells were then treated with serial dilutions of test peptides in a 96 well plate at 37° C. for 30 minutes. Control samples included a saline solution arid 1% Triton X-100 as 0 and 100% hemolysis, respectively. In some cases, mellitin was used as a further control. Mellitin is a linear peptide that is hemolytic against mammalian red blood cells in vitro at a concentration of about 10 μg/ml. Plates were centrifuged at 1000 g for 10 minutes. Aliquots of the supernatant were diluted 2 times with saline solution and the absorbance was measured at 560 nm.

[1] = system: vancomycin-resistant Enterococus faecalis (VRE)(ATCC 51575); assay type: cell-based, Enterococcus faecalis; set-up: key to VRE (in vitro activity): peptide concentration in μg/ml (broth dilution assay); conditions: Table 9
Protocol: (§1) The antimicrobial activity of the peptides was determined using a broth dilution assay essentially as descried in the guidelines of the National Committee for […] (NCCLS) [National Committee for Clinical Laboratory Standards. Methods for dilution antimicrobial susceptibility tests for bacteria that grow aerobically. Fourth edition. Approved Standard (1997). Document M7-A4. […] The microdilution method has the advantages of requiring less amount of peptide for each assay and the possibility of multiple simultaneous inoculations and was used in most studies. Several of the strains of bacteria tested are further described in Table 3.
(§2) Preparation of peptide solutions. Stock peptide solutions were prepared in 5% DMSO in aq. sucrose (9%). Determination of peptide concentrations was done by quantitative HPLC analysis using known concentrations of internal standards and/or by measuring UV absorption of tryptophane-containing peptide solutions in H2O (λ=280 εTrp: 5690). Serial 2-fold dilutions were made in the above DMSO/aq. sucrose (9%) mixture with concentrations ranging approximately 400-2 μg/ml and aliquots were dispensed in test tubes (100 μl) for the macrodilution test or in microtiter plates (20 μl) for the microdilution assays.
(§3) Inoculum preparation. Overnight cultures of different microorganisms grown in suitable media were diluted 4000 times to an approximate inoculum size of 2.5×10^5 cfu/ml.
(§4) Macrodilution method. Macrodilution methods were performed using procedures similar to those described in the National Committee for Clinical Laboratory Standards. Methods for dilution antimicrobial susceptibility tests for bacteria that grow aerobically. Fourth edition. Approved Standard (1997). Document M7-A4. (NCCLS,Villanova, Pa., 1997). Two ml aliquots of the above inoculum were dispensed to test tubes containing different peptide solutions.
(§5) Microdilution method. Microdilution methods were performed using procedures similar to those described in the National Committee for Clinical Laboratory Standards. Methods for dilution antimicrobial susceptibility tests for bacteria that grow aerobically. Fourth edition. Approved Standard (1997). Document M7-A4.

[2] = system: S. aureus (MRSA) ATCC 33591; assay type: cell-based, Staphylococcus aureus; conditions: for MRSA (in vitro activity): Table 9; for S. aureus (MRSA) MIC: ATCC 33591
Protocol: as §1, §2, §3, §4, §5

[3] = media c: Brain Heart Infusion (BHI)
[4] = media b: cation adjusted Meuller Hinton broth (MHBII)
[5] = media a: anti-microbial media-3 (AM-3)

SMILES | RBC Hemolysis (HD50) (murine red blood cells) | VRE (in vitro activity) [1, 3] | MRSA (in vitro activity) [2, 4] | other results
CC(C)C[C@H]1NC(=O)[C@H](CCCCN)NC(=O)[C@@H](CC(C)C)NC(=O)[C@H](Cc2c[nH]c3ccccc23)NC(=O)[C@@H](CC(C)C)NC(=O)[C@H](Cc2c[nH]c3ccccc23)NC(=O)[C@@H](CC(C)C)NC(=O)[C@H](Cc2c[nH]c3ccccc23)NC1=O [SEQ ID NO:41, [KLWLWLWL]] (cyclo(K[dL]W[dL]W[dL]W[dL])) | 30 | 25 | 12 | 
CC[C@H](C)[C@@H]1NC(=O)[C@@H](Cc2c[nH]c3ccccc23)NC(=O)[C@H](CCCCN)NC(=O)[C@@H](CCCNC(=N)N)NC(=O)[C@H](C)NC(=O)[C@@H](CC(C)C)NC1=O [SEQ ID NO:114, [KWILAR]] (cyclo(K[dW]I[dL]A[dR])) | >200 | >200 | 50 | 
CC(C)C[C@H]1NC(=O)[C@H](CCCCN)NC(=O)[C@@H](CO)NC(=O)[C@H](CCCCN)NC(=O)[C@@H](CC(C)C)NC(=O)[C@H](Cc2c[nH]c3ccccc23)NC(=O)[C@@H](CC(C)C)NC(=O)[C@H](Cc2c[nH]c3ccccc23)NC1=O [SEQ ID NO:61, [KSKLWLWL]] (cyclo(K[dS]K[dL]W[dL]W[dL])) | 125 | 15 | 15 | 
CC(C)C[C@H]1NC(=O)[C@H](CCCCN)NC(=O)[C@@H](Cc2c[nH]cn2)NC(=O)[C@H](CCCCN)NC(=O)[C@@H](CC(C)C)NC(=O)[C@H](Cc2ccccc2)NC(=O)[C@@H](CC(C)C)NC(=O)[C@H](Cc2ccccc2)NC1=O [SEQ ID NO:48, [KHKLFLFL]] (cyclo(K[dH]K[dL]F[dL]F[dL])) | >220 | 13 | 7 | 
CC(C)C[C@@H](NC(=O)[C@H](Cc1c[nH]c2ccccc12)NC(=O)[C@@H](CC(C)C)NC(=O)[C@H](Cc1c[nH]c2ccccc12)NC(=O)[C@@H](CCCCN)NC(=O)[C@H](CCCCN)NC(=O)[C@H](N)CCCCN)C(=O)N[C@@H](Cc1c[nH]c2ccccc12)C(=O)O [SEQ ID NO:24, KKKWLWLW] (H-[dK]K[dK]W[dL]W[dL]W-OH; N-terminus and C-terminus assumed) |  |  |  | S. aureus (MRSA) MIC [2]: 50 µg/mL
N=C(N)NCCC[C@H]1NC(=O)[C@H](CCCCN)NC(=O)[C@@H](Cc2ccccc2)NC(=O)[C@H](Cc2c[nH]c3ccccc23)NC(=O)[C@@H](Cc2ccccc2)NC(=O)[C@H](CCCCN)NC(=O)[C@@H](Cc2ccccc2)NC(=O)[C@H](CCC(N)=O)NC1=O [SEQ ID NO:102, [KRQFKFWF]] (cyclo(K[dR]Q[dF]K[dF]W[dF])) | >200 | 12 | 12 | 
CC(C)C[C@H]1NC(=O)[C@H](CCCCN)NC(=O)[C@@H](CO)NC(=O)[C@H](CCCCN)NC(=O)[C@@H](CC(C)C)NC(=O)[C@H](CCCNC(=N)N)NC(=O)[C@@H](CC(C)C)NC(=O)[C@H](CCCNC(=N)N)NC1=O [SEQ ID NO:106, [KSKLRLRL]] (cyclo(K[dL]R[dL]R[dL]K[dS])) | >400 |  |  | VRE (in vitro activity) ([1]; media c: Brain Heart Infusion (BHI), listed as [KSKLRLRL] (106)): >400; MRSA (in vitro activity) ([2]; media b: cation adjusted Meuller Hinton broth (MHBII), listed as [KSKLRLRL] (106)): >400
CC(C)C[C@H]1NC(=O)[C@H](CCCCN)NC(=O)[C@@H](CCCNC(=N)N)NC(=O)[C@H](CCCCN)NC(=O)[C@@H](CC(C)C)NC(=O)[C@H](Cc2ccccc2)NC(=O)[C@@H](CC(C)C)NC(=O)[C@H](Cc2ccccc2)NC1=O [SEQ ID NO:52, [KRKLFLFL]] (cyclo(K[dR]K[dL]F[dL]F[dL])) | >180 | 22 | 11 | 
C[C@H](O)[C@H]1NC(=O)[C@H](CCCNC(=N)N)NC(=O)[C@@H](CO)NC(=O)[C@H](CCC(N)=O)NC(=O)[C@@H](Cc2c[nH]cn2)NC(=O)[C@H](CCCCN)NC1=O [SEQ ID NO:131, [KHQSRT]] (cyclo(K[dH]Q[dS]R[dT])) |  |  |  | VRE (in vitro activity) ([1]; media a: AM-3): >200; MRSA (in vitro activity) [2, 5]: >200
CC(C)C[C@@H]1NC(=O)[C@@H](Cc2c[nH]c3ccccc23)NC(=O)[C@H](CCCCN)NC(=O)[C@@H](Cc2c[nH]cn2)NC(=O)[C@H](CCC(N)=O)NC(=O)[C@@H](Cc2c[nH]cn2)NC(=O)[C@H](CCCCN)NC(=O)[C@@H](Cc2c[nH]c3ccccc23)NC1=O [SEQ ID NO:87, [KHQHKWLW]] (cyclo(K[dH]Q[dH]K[dW]L[dW])) | 200 | 12 | 6 | 
CC(C)C[C@@H]1NC(=O)[C@@H](Cc2c[nH]c3ccccc23)NC(=O)[C@H](CCC(N)=O)NC(=O)[C@@H](CC(N)=O)NC(=O)[C@H](CCCCN)NC(=O)[C@@H](Cc2c[nH]c3ccccc23)NC1=O [SEQ ID NO:123, [KNQWLW]] (cyclo(K[dN]Q[dW]L[dW])) | >74 |  |  | VRE (in vitro activity) ([1]; media a: AM-3): >74; MRSA (in vitro activity) [2, 5]: >74
CC(C)C[C@@H]1NC(=O)[C@@H](Cc2c[nH]c3ccccc23)NC(=O)[C@H](Cc2ccccc2)NC(=O)[C@@H](CCCNC(=N)N)NC(=O)[C@H](CCC(N)=O)NC(=O)[C@@H](CCCNC(=N)N)NC(=O)[C@H](Cc2c[nH]c3ccccc23)NC(=O)[C@@H](Cc2c[nH]c3ccccc23)NC1=O [SEQ ID NO:39, QRFWLWWR] (cyclo(Q[dR]F[dW]L[dW]W[dR])) |  |  |  | S. aureus (MRSA) MIC [2]: 2.5 to 3.8 µg/mL
CC(C)C[C@@H]1NC(=O)[C@@H](Cc2c[nH]c3ccccc23)NC(=O)[C@H](Cc2c[nH]c3ccccc23)NC(=O)[C@@H](CCCNC(=N)N)NC(=O)[C@H](CCC(N)=O)NC(=O)[C@@H](CCCNC(=N)N)NC(=O)[C@H](Cc2c[nH]c3ccccc23)NC(=O)[C@@H](Cc2c[nH]c3ccccc23)NC1=O [SEQ ID NO:36, QRWWLWWR] (cyclo(Q[dR]W[dW]L[dW]W[dR])) |  |  |  | S. aureus (MRSA) MIC [2]: 2.5 to 3.8 µg/mL
CC(C)C[C@@H]1NC(=O)[C@@H](Cc2c[nH]c3ccccc23)NC(=O)[C@H](C(C)C)NC(=O)[C@@H](CCCNC(=N)N)NC(=O)[C@H](CCC(N)=O)NC(=O)[C@@H](CCCNC(=N)N)NC(=O)[C@H](Cc2c[nH]c3ccccc23)NC(=O)[C@@H](Cc2c[nH]c3ccccc23)NC1=O [SEQ ID NO:38, QRVWLWWR] (cyclo(Q[dR]V[dW]L[dW]W[dR])) |  |  |  | S. aureus (MRSA) MIC [2]: 2.5 to 3.8 µg/mL
CC(C)C[C@@H](NC(=O)[C@H](Cc1c[nH]c2ccccc12)NC(=O)[C@@H](CC(C)C)NC(=O)[C@H](Cc1c[nH]c2ccccc12)NC(=O)[C@@H](CCCCN)NC(=O)[C@H](CCCCN)NC(=O)[C@@H](CCCCN)NC(=O)[C@@H](N)Cc1c[nH]c2ccccc12)C(=O)N[C@@H](Cc1c[nH]c2ccccc12)C(=O)O [SEQ ID NO:23, WKKKWLWLW] (H-W[dK]K[dK]W[dL]W[dL]W-OH; N-terminus and C-terminus assumed) |  |  |  | S. aureus (MRSA) MIC [2]: 60 µg/mL
CC(C)C[C@H]1NC(=O)[C@H](CCCCN)NC(=O)[C@@H](CO)NC(=O)[C@H](CCCCN)NC(=O)[C@@H](CC(C)C)NC(=O)[C@H](Cc2ccccc2)NC(=O)[C@@H](CC(C)C)NC(=O)[C@H](Cc2ccccc2)NC1=O [SEQ ID NO:55, [KSKLFLFL]] (cyclo(F[dL]F[dL]K[dS]K[dL])) |  |  |  | VRE (in vitro activity) ([1]; media b: MHBII): 50; MRSA (in vitro activity) ([2]; media b: cation adjusted Meuller Hinton broth (MHBII), listed as [KSKLFLFL] (55)): 200
CC[C@H](C)[C@@H]1NC(=O)[C@@H](CC(C)C)NC(=O)[C@H](CCCCN)NC(=O)[C@@H](CO)NC(=O)[C@H](CCCCN)NC(=O)[C@@H](CC(C)C)NC(=O)[C@H]([C@@H](C)CC)NC(=O)[C@@H](CC(C)C)NC1=O [SEQ ID NO:58, [KSKLILIL]] (cyclo(I[dL]I[dL]K[dS]K[dL])) |  |  |  | VRE (in vitro activity) ([1]; media b: MHBII): 50; MRSA (in vitro activity) ([2]; media b: cation adjusted Meuller Hinton broth (MHBII), listed as [KSKLILIL] (58)): >200
